The source of these data is publication PMC6099232, “High V‐PPase activity is beneficial under high salt loads, but detrimental without salinity” (The New Phytologist, 2018).

Data set [1] addresses T1, NbVHP2 (Nicotiana benthamiana, UniProt A0A238MN04).
T1 construct: gene NbPPA1.1; full-length cDNA, untagged, ubiquitin promoter in pCambia2200 with separate free eGFP; transient overexpression in N. benthamiana mesophyll; vacuoles also hold endogenous NbVHP1/2
T1 sequence (A0A238MN04 1-766): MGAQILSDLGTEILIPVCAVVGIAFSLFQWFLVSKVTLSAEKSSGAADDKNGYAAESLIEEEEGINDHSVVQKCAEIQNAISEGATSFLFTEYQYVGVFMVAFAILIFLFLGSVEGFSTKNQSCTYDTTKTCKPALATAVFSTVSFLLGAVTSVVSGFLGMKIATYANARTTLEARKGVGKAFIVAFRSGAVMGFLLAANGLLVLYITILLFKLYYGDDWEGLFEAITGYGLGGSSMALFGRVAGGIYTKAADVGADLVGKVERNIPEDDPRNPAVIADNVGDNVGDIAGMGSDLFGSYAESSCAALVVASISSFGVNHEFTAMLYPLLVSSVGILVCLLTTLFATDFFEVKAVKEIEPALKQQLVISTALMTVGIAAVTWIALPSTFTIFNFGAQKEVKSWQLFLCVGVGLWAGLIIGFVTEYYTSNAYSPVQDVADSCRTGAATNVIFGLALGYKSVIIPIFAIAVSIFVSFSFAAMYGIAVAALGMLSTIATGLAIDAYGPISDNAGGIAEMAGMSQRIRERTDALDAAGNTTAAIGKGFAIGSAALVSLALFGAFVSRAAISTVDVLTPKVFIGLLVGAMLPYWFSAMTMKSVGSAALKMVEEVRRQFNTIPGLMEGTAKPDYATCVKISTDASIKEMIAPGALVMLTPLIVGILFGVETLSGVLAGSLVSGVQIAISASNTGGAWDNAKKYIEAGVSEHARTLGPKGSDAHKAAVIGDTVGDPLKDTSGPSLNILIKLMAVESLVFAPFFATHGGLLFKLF
As to the kind of experiment: whole-vacuole patch clamp, PPi-induced proton pump current. In kind it is biochemical. The note with it: 150 μM PPi, 0 mV; 5 mM MgCl2, 100 mM K-gluconate, 0.1 mM CaCl2, pH 7.5; endogenous NbVHP background. For orientation: Patch clamp records ionic current or voltage across a cell membrane.

The target of data set [2] is T2, IPP1 (Saccharomyces cerevisiae, UniProt P00817).
T2 construct: soluble PPase, cDNA under ubiquitin promoter in pCambia2200, transiently overexpressed in N. benthamiana leaves
Put plainly: PPi hydrolysis activity of leaf protein extract. The note with it: activity compared with control. The data set is classed as biochemical.

Substrate in data set [3]: O=P(O)(O)OP(=O)(O)O
As to the kind of experiment: whole-vacuole patch clamp, PPi-induced proton pump current. In kind it is biochemical, Nicotiana benthamiana. To be noted: 0 mV, cytosolic pH 7.5, global fit of luminal pH 7.5 and 5.5, 5 mM MgCl2, 100 mM K-gluconate, 0.1 mM CaCl2, endogenous NbVHP background.

Substrate in data set [4]: O=P(O)(O)OP(=O)(O)O
Described as above. The data set is classed as biochemical, Arabidopsis thaliana. The note with it: 0 mV, 5 mM MgCl2, 100 mM K-gluconate, 0.1 mM CaCl2, pH 7.5, about one-third of current from endogenous NbVHP1/2.

T2 sequence (P00817 2-287): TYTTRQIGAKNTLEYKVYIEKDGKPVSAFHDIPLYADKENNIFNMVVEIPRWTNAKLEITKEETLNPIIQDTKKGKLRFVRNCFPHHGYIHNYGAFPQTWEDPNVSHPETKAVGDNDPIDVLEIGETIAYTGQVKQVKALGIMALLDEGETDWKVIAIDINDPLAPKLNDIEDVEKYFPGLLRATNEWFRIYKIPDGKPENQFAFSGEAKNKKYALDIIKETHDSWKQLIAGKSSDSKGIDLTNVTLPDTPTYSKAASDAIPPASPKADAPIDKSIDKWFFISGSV

On to `O=P(O)(O)OP(=O)(O)O` [PPi, pyrophosphate], for which the “whole-vacuole patch clamp, PPi-induced proton pump current” value in data set [1] was “almost four times higher in vacuoles from NbVHP1‐ or NbVHP2‐overexpressing mesophyll cells”. In addition, in data set [2], the “PPi hydrolysis activity of leaf protein extract” value is “IPP1‐transformed N. benthamiana leaves exhibited a hydrolytic PPi activity”.

B1: NbVHP1 (Nicotiana benthamiana) (protein)
chain: MGAALLPDLGTEIVIPVCAVIGIVFSLVQWYIVSNVKLTPESSSPSNNGKNGYGDYLIEEEEGINDQNVVVKCAEIQNAISEGATSFLFTEYQYVGIFMIAFAILIFLFLGSVEGFSTKSQPCTYNKEKLCKPALATAIFSTVSFLLGAITSVVSGFLGMKVATYANARTTLEARKGVGKAFIVAFRSGAVMGFLLAANGLLVLYIAINLFKLYYGDDWEGLFEAITGYGLGGSSMALFGRVGGGIYTKAADVGADLVGKVERNIPEDDPRNPAVIADNVGDNVGDIAGMGSDLFGSYAEASCAALVVASISSFGINHEFTAMLYPLLISSMGVLICLITTLFATDFFEIKAVKEIEPALKNQLIISTALMTVGIAIVTWTCLPSSFTIFNFGAQKVVKNWQLFLCVAVGLWAGLIIGFVTEYYTSNTYSPVQDVADSCRTGAATNVIFGLALGYKSVIIPIFAIAIAIFVSFSFAAMYGIAVAALGMLSTIATGLAIDAYGPISDNAGGIAEMAGMSHRIRERTDALDAAGNTTAAIGKGFAIGSAALVSLALFGAFVSRAAITTVDVLTPQVFIGLIVGAMLPYWFSAMTMKSVGSAALKMVEEVRRQFNTIPGLMEGTAKPDYATCVKISTDASIKEMIPPGALVMLTPLIVGIFFGVETLSGVLAGALVSGVQIAISASNTGGAWDNAKKYIEAGASEHARTLGPKGSEPHKAAVIGDTIGDPLKDTSGPSLNILIKLMAVESLVFAPFFATHGGLLFKIF
notes: full-length cDNA, untagged, ubiquitin promoter in pCambia2200 with separate free eGFP; transient overexpression in N. benthamiana mesophyll; vacuoles also hold endogenous NbVHP1/2; homodimer of c; 80 kDa polypeptide
B1: in data set [3], the Km (as a rule, the concentration of substrate that gives half-maximal velocity) was 65 ± 9 µM.

B2: AtVHP1 (Arabidopsis thaliana) (protein)
chain: MVAPALLPELWTEILVPICAVIGIAFSLFQWYVVSRVKLTSDLGASSSGGANNGKNGYGDYLIEEEEGVNDQSVVAKCAEIQTAISEGATSFLFTEYKYVGVFMIFFAAVIFVFLGSVEGFSTDNKPCTYDTTRTCKPALATAAFSTIAFVLGAVTSVLSGFLGMKIATYANARTTLEARKGVGKAFIVAFRSGAVMGFLLAASGLLVLYITINVFKIYYGDDWEGLFEAITGYGLGGSSMALFGRVGGGIYTKAADVGADLVGKIERNIPEDDPRNPAVIADNVGDNVGDIAGMGSDLFGSYAEASCAALVVASISSFGINHDFTAMCYPLLISSMGILVCLITTLFATDFFEIKLVKEIEPALKNQLIISTVIMTVGIAIVSWVGLPTSFTIFNFGTQKVVKNWQLFLCVCVGLWAGLIIGFVTEYYTSNAYSPVQDVADSCRTGAATNVIFGLALGYKSVIIPIFAIAISIFVSFSFAAMYGVAVAALGMLSTIATGLAIDAYGPISDNAGGIAEMAGMSHRIRERTDALDAAGNTTAAIGKGFAIGSAALVSLALFGAFVSRAGIHTVDVLTPKVIIGLLVGAMLPYWFSAMTMKSVGSAALKMVEEVRRQFNTIPGLMEGTAKPDYATCVKISTDASIKEMIPPGCLVMLTPLIVGFFFGVETLSGVLAGSLVSGVQIAISASNTGGAWDNAKKYIEAGVSEHAKSLGPKGSEPHKAAVIGDTIGDPLKDTSGPSLNILIKLMAVESLVFAPFFATHGGILFKYF
notes: untagged cDNA, ubiquitin promoter in pCambia2200 with separate free eGFP; transient overexpression in N. benthamiana mesophyll; about one-third of the current from endogenous NbVHP1/2
Turning to B2, the Km in data set [4] stood at 75 ± 11 µM.
